In ChEMBL document CHEMBL5385865, “Discovery and optimization of 2-(trifluoromethyl)benzimidazole derivatives as novel ferroptosis inducers in vitro and in vivo” (Eur J Med Chem, 2023):
Active and inactive are the calls of the source. The calls are words filed in the database; no cut-off is given here.

Assays:
HepG2 [1] = assay: Induction of apoptosis in human HepG2 cells xenografted in BALB/c nude mouse at 15 to 30 mg/kg, ip administered every other day for 21 days by TUNEL staining based IHC analysis; format: functional, organism-based; conditions: dose 15-30 mg/kg, time 21.0 day
[2] = Metabolic stability in […] rat microsomes assessed as half life at 1 uM in presence of NADPH by LC-MS analysis; format: ADME, Liver, Microsome
[3] = Toxicity in BALB/c nude mouse xenografted with human HepG2 cells assessed as body weight loss at 15 to 30 mg/kg, ip administered every other day for 21 days; format: organism-based; conditions: in vivo, 504 h, dose 15-30 mg/kg, time 21 day
HT-1080 [4] = assay: Induction of ferroptosis in human HT-1080 cells assessed as cell death at 10 uM incubated for 24 hrs in presence of Z-VAD-FMK by MTT assay; format: functional, cell-based
HT-1080 [5] = assay: Induction of ferroptosis in human HT-1080 cells assessed as cell death incubated for 24 hrs by morphology based microscopy; format: functional; conditions: dose 0.5-5 µM
HT-1080 [6] = assay: Induction of ferroptosis in human HT-1080 cells assessed as increase in lipid ROS accumulation at 5 uM incubated for 10 hrs by BODIPY-C11 probe based confocal laser scanning microscopy; format: functional, cell-based
HT-1080 [7] = assay: Induction of ferroptosis in human HT-1080 cells assessed as increase in SLC7A11 mRNA level incubated for 18 hrs by qPCR analysis; format: functional, cell-based; conditions: dose 0.5-5 µM
HT-1080 [8] = assay: Induction of ferroptosis in human HT-1080 cells overexpressing SLC7A11 assessed as increase in lipid peroxidation by BODIPY-C11 probe based confocal laser scanning microscopy; format: functional, cell-based
MDA-MB-231 = assay: Lethality in human MDA-MB-231 cells assessed as decrease in cell viability at 10 uM incubated for 48 hrs in presence of Fer-1 by MTT assay; format: functional, cell-based
A-375 = assay: Lethality in human A-375 cells assessed as decrease in cell viability at 10 uM incubated for 48 hrs in presence of Fer-1 by MTT assay; format: functional, cell-based
HepG2 [9] = assay: Antitumor activity against human HepG2 cells xenografted in BALB/c nude mouse assessed as tumor growth inhibition at 15 mg/kg, ip administered every other day for 21 days by electronic caliper analysis relative to control; format: functional; conditions: HepG2, 504 h, time 21 day, read-out: TGI
HepG2 [10] = assay: Antitumor activity against human HepG2 cells xenografted in BALB/c nude mouse assessed as tumor growth inhibition at 30 mg/kg, ip administered every other day for 21 days by electronic caliper analysis relative to control; format: functional; conditions: HepG2, 504 h, time 21 day, read-out: TGI
[11] = Toxicity in BALB/c nude mouse xenografted with human HepG2 cells assessed as effect on serum AST level at 15 to 30 mg/kg, ip administered every other day for 21 days; format: organism-based; conditions: in vivo, 504 h, dose 15-30 mg/kg, time 21 day
HepG2 [12] = assay: Induction of ferroptosis in human HepG2 cells xenografted in BALB/c nude mouse assessed as increase in MDA level administered intraperitoneally every other day for 21 days; format: functional; conditions: dose 15-30 mg/kg, route ip, time 21.0 day

Q: Which Activity (HepG2 [1]) does the source give for `CN(C)S(=O)(=O)c1ccc(N2CCC(Cn3c(C(F)(F)F)nc4ccccc43)CC2)cc1` here?
A: inactive

Q: What about the half-life at 1 µM [2] of the same compound?
A: 10.4 min

Q: And the Activity [3]?
A: Non-Toxic

Q: What about the Activity (HT-1080 [4]) of the same compound?
A: Active

Q: And the Activity (HT-1080 [5])?
A: Dose-Dependent Effect

Q: And the Activity (HT-1080 [6])?
A: Active

Q: And the Activity (HT-1080 [7])?
A: Dose-Dependent Effect

Q: What about the Activity (HT-1080 [8]) of the same compound?
A: inactive

Q: What about the Activity (MDA-MB-231) of the same compound?
A: inactive

Q: What about the Activity (A-375) of the same compound?
A: inactive

Q: And the inhibition in vivo at 15 mg/kg (HepG2 [9])?
A: 47.6%

Q: What about the inhibition in vivo at 30 mg/kg (HepG2 [10]) of the same compound?
A: 77.1%

Q: What about the Activity [11] of the same compound?
A: Non-Toxic

Q: And the Activity (HepG2 [12])?
A: Dose-Dependent Effect
